Measurements as given in the NIST ThermoML archive (doi:10.1021/je500886a).

Test: mn = molality of the nth substance listed, in mol/kg
Conditions: 101 kPa, Liquid

O=C[C@H](O)[C@@H](O)[C@@H](O)[C@H](O)CO [(+)-galactose] + O
Conditions	mass density [kg/m3]	viscosity [mPa·s]
288.15 K, m1 = 0.05001	–	1.166
288.15 K, m1 = 0.05096	1002.7	–
288.15 K, m1 = 0.06903	1003.95	–
288.15 K, m1 = 0.07068	–	1.178
288.15 K, m1 = 0.09042	1005.42	–
288.15 K, m1 = 0.09059	–	1.189
288.15 K, m1 = 0.1099	–	1.199
288.15 K, m1 = 0.1289	–	1.208
288.15 K, m1 = 0.1513	–	1.22
288.15 K, m1 = 0.1552	1009.81	–
298.15 K, m1 = 0.05001	–	0.91
298.15 K, m1 = 0.05096	1000.58	–
298.15 K, m1 = 0.06903	1001.82	–
298.15 K, m1 = 0.07068	–	0.919
298.15 K, m1 = 0.09042	1003.27	–
298.15 K, m1 = 0.09059	–	0.927
298.15 K, m1 = 0.1099	–	0.935
298.15 K, m1 = 0.1102	1004.61	–
298.15 K, m1 = 0.1289	–	0.941
298.15 K, m1 = 0.1322	1006.08	–
298.15 K, m1 = 0.1513	–	0.951
308.15 K, m1 = 0.05001	–	0.734
308.15 K, m1 = 0.05096	997.56	–
308.15 K, m1 = 0.06903	998.79	–
308.15 K, m1 = 0.07068	–	0.741
308.15 K, m1 = 0.09042	1000.22	–
308.15 K, m1 = 0.09059	–	0.747
308.15 K, m1 = 0.1099	–	0.753
308.15 K, m1 = 0.1102	1001.54	–
308.15 K, m1 = 0.1289	–	0.758
308.15 K, m1 = 0.1322	1003	–
308.15 K, m1 = 0.1513	–	0.766
308.15 K, m1 = 0.1552	1004.51	–
318.15 K, m1 = 0.05001	–	0.607
318.15 K, m1 = 0.05096	993.7	–
318.15 K, m1 = 0.06903	994.91	–
318.15 K, m1 = 0.07068	–	0.612
318.15 K, m1 = 0.09042	996.33	–
318.15 K, m1 = 0.09059	–	0.617
318.15 K, m1 = 0.1099	–	0.621
318.15 K, m1 = 0.1102	997.64	–
318.15 K, m1 = 0.1289	–	0.625
318.15 K, m1 = 0.1322	999.07	–
318.15 K, m1 = 0.1513	–	0.63
318.15 K, m1 = 0.1552	1000.57	–

O=C[C@@H](O)[C@H](O)[C@H](O)CO [D-(-)-arabinose] + O
Conditions	mass density, 288.15 K [kg/m3]	mass density, 298.15 K [kg/m3]	mass density, 308.15 K [kg/m3]	mass density, 318.15 K [kg/m3]	viscosity, 288.15 K [mPa·s]	viscosity, 298.15 K [mPa·s]	viscosity, 308.15 K [mPa·s]	viscosity, 318.15 K [mPa·s]
m1 = 0.05173	1002.09	999.97	996.94	993.08	–	–	–	–
m1 = 0.05178	–	–	–	–	1.157	0.905	0.73	0.604
m1 = 0.0695	–	–	–	–	1.164	0.909	0.734	0.608
m1 = 0.07102	1003.18	1001.05	998	994.13	–	–	–	–
m1 = 0.08979	–	–	–	–	1.17	0.915	0.738	0.611
m1 = 0.09055	1004.28	1002.13	999.06	995.18	–	–	–	–
m1 = 0.1077	–	–	–	–	1.177	0.92	0.741	0.614
m1 = 0.1093	1005.32	1003.17	1000.07	996.18	–	–	–	–
m1 = 0.1244	1006.17	1004	1000.88	996.98	–	–	–	–
m1 = 0.1267	–	–	–	–	1.182	0.925	0.745	0.616
m1 = 0.1476	1007.45	1005.26	1002.12	998.21	–	–	–	–
m1 = 0.151	–	–	–	–	1.191	0.932	0.75	0.621
